Values after ≈ are worked out from the molar mass of the structure shown. Where two headings read alike, the source gives them in different places.
Tested on: Spodoptera littoralis larvae (2nd and 4th instar)
Experiment: Insecticidal bioassay screening (castor leaf dip)
Assay type: in vivo
Details: for LC50 (ppm) at 95% / LC90 (ppm) at 95%: after 72 h of treatment; for Toxicity index %: Diflubenzuron LC50 / compound LC50 x 100; for LC50: foliar
Experimental: In this experiment, castor leaves are immersed in each of the previously prepared concentrations of the components for 10 seconds and then left to dry for 60 minutes. Larvae of the second and fourth instars of each checked strain are prepared with treated leaves in gauze-covered glass containers for 72 hrs. An untreated control is made in which leaves are dipped in triton x-100 and distilled water only. Then the preserved leaves were removed & fresh, untreated leaves were provided for 72 hours. Three replicates (10 larvae each) were checked for each concentration. Daily inspection was carried out for all treatments and mortality percentages were recorded 3 days (72 hours) after treatment. The average mortality percentage was corrected employing Abbott's formula. The corrected mortality rate for each of the previously synthesized compounds is statistically calculated according to Finney (1970). Through this rate, the corresponding concentration test lines (LDP lines) are assessed. Fifty and ninety percent mortality are determined, and the regression values for the checked products were previously evaluated.

[1] = 2nd instar larvae of S. littoralis
[2] = 4th instar larvae of S. littoralis

| SMILES | LC50 (ppm) at 95% [1] | LC90 (ppm) at 95% [1] | Toxicity index % (2nd instar larvae) | LC50 (ppm) at 95% [2] | LC90 (ppm) at 95% [2] | Toxicity index % (4th instar larvae) | effect on larval morphology (FIGS. 1A-1B) (S. littoralis larvae versus normal larvae (control)) | activity against Spodoptera littoralis (in words) (compared with reference insecticide Diflubenzuron) | LC50 (against Spodoptera littoralis under laboratory conditions (instar not given), read-out: LC50) | LC50 (Spodoptera littoralis) |
| --- | --- | --- | --- | --- | --- | --- | --- | --- | --- | --- |
| O=C(NC(=S)Nc1cccc(Cl)c1)c1ccc(Cl)cc1Cl [Compound 1, 2,4-dichloro-N-[(3-chlorophenyl)carbamothioyl]benzamide] | 211.4 ppm | 1913.2 ppm | 21.1% | 472.3 ppm | 4322.7 ppm | 30.5% | – | – | – | – |
| CCOC(=O)CS/C(=N\c1cccc(Cl)c1)NC(=O)c1ccc(Cl)cc1Cl [Compound 2, Ethyl {[N′-(3-chlorophenyl)-N-(2,4-dichlorobenzoyl)carbamimidoyl]sulfanyl}acetate] | about 211.4 ppm | – | – | about 472.3 ppm | – | – | Morphological malformations | active against Spodoptera littoralis | 211 µg/mL | – |
| O=C(NC(=O)c1c(F)cccc1F)Nc1ccc(Cl)cc1 [Diflubenzuron, reference compound] | 45.20 ppm | 520.0 ppm | 100% | 144.05 ppm | 1540.5 ppm | 100% | – | – | – | 45.2 µg/mL (≈ 145 µM) |
